Numbered stars: 1 amine (or outer) side, 2 acyl side, 3 side chain; on linkers, the order of the positions; unused ones are H or OH. Square brackets hold non-standard residues; d marks the D form. Peptide text beside a SMILES is read from it. dGly(5-dibenzosuberyl) = N[C@@H](C(=O)O)C1c2ccccc2CCc2ccccc21; X3 = O=C([C@@H](N[*:1])C(c1ccccc1)(c1ccccc1)c1ccccc1)[*:2]; Ala(1-Adamantyl) = N[C@@H](CC12CC3CC(CC(C3)C1)C2)C(=O)O; X4 = Cc1c(C)c(C)c(C[C@@H](N[*:1])C(=O)[*:2])c(C)c1C; dDip = N[C@@H](C(=O)O)C(c1ccccc1)c1ccccc1; Dip = N[C@H](C(=O)O)C(c1ccccc1)c1ccccc1; Orn = NCCC[C@H](N)C(=O)O A value given as a limit tells only on which side of the number the result lay.

One assay concerns the target T1, Endothelin receptor type B (Rattus norvegicus, UniProt P21451).
T1 sequence (P21451 whole entry): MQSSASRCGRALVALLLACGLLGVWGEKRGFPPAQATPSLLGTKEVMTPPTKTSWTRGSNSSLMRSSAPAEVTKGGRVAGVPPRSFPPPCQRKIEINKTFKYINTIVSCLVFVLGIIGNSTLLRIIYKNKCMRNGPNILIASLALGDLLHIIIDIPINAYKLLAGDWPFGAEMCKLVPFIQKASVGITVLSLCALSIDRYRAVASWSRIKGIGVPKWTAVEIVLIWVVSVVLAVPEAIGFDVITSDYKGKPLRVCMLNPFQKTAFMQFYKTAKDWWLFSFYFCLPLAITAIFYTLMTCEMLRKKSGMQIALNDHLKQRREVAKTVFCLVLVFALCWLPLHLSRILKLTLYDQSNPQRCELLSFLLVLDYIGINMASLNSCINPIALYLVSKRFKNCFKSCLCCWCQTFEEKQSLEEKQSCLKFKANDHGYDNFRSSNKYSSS
Briefly: Binding affinity against endothelin B receptor rat cerebellar membranes.
What is called IC50 is the concentration that gives 50% inhibition. In the case of `CC[C@H](C)[C@@H]1NC(=O)[C@H](CC(=O)O)NC(=O)[C@@H](NC(=O)[C@H](NC(C)=O)C(c2ccccc2)c2ccccc2)CSSC[C@@H](C(=O)N[C@@H](Cc2c[nH]c3ccccc23)C(=O)O)NC1=O`, the IC50 is above 1000 nM. On the same count and under the same terms, the result for `CC[C@H](C)[C@H](NC(=O)[C@H](CC(=O)O)NC(=O)[C@H](CC(C)C)NC(=O)[C@@H](NC(C)=O)C(c1ccccc1)c1ccccc1)C(=O)N[C@@H](CCC(=O)O)C(=O)N[C@@H](Cc1c[nH]c2ccccc12)C(=O)O` (Ac-[Dip]LDIEW-OH) reads above 10000 nM. `CC[C@H](C)[C@H](NC(=O)[C@H](CC(=O)O)NC(=O)[C@H](CC(C)C)NC(=O)[C@@H](NC(C)=O)C(c1ccccc1)c1ccccc1)C(=O)N[C@@H](CCCCN)C(=O)N[C@@H](Cc1c[nH]c2ccccc12)C(=O)O` (Ac-[Dip]LDIKW-OH): the IC50 came out at 4700 nM. On the same count and under the same terms, the same measure for Ac-FFDIIW-OH: 20 nM; for `CC[C@H](C)[C@H](NC(=O)[C@H](CC1CCCCC1)NC(=O)[C@H](CC(=O)O)NC(=O)[C@H](CC(C)C)NC(=O)[C@H](NC(C)=O)C(c1ccccc1)c1ccccc1)C(=O)N[C@@H](Cc1c[nH]c2ccccc12)C(=O)O`: 210 nM. `CC[C@H](C)[C@H](NC(=O)[C@H](CC(=O)O)NC(=O)[C@H](CC(C)C)NC(=O)[C@H](CC12CC3CC(CC(C3)C1)C2)NC(C)=O)C(=O)N[C@H](C(=O)N[C@@H](Cc1c[nH]c2ccccc12)C(=O)O)[C@@H](C)CC` (Ac-[Ala(1-Adamantyl)]LDIIW-OH) gave an IC50 of 2000 nM. Same read-out and setting: the result for `CC[C@H](C)[C@H](NC(=O)[C@H](CC(=O)O)NC(=O)[C@H](CCCN)NC(=O)[C@@H](NC(C)=O)C(c1ccccc1)c1ccccc1)C(=O)N[C@H](C(=O)N[C@@H](Cc1c[nH]c2ccccc12)C(=O)O)[C@@H](C)CC` (Ac-[Dip][Orn]DIIW-OH) reads 150 nM; that for `CC[C@H](C)[C@H](NC(=O)[C@H](C)NC(=O)[C@H](CC(=O)O)NC(=O)[C@H](CC(C)C)NC(=O)[C@H](NC(C)=O)C(c1ccccc1)c1ccccc1)C(=O)N[C@@H](Cc1c[nH]c2ccccc12)C(=O)O`, 330 nM. With `CC[C@H](C)[C@H](NC(=O)[C@H](CC(=O)O)NC(=O)[C@H](CC(C)C)NC(=O)[C@@H](N)C(c1ccccc1)(c1ccccc1)c1ccccc1)C(=O)N[C@H](C(=O)N[C@@H](Cc1c[nH]c2ccccc12)C(=O)O)[C@@H](C)CC` (H-[X3]LDIIW-OH), the IC50 turned out to be 10000 nM. `CC[C@H](C)[C@H](NC(=O)[C@H](Cc1ccc(O)cc1)NC(=O)[C@H](CC(C)C)NC(=O)[C@H](NC(C)=O)C(c1ccccc1)c1ccccc1)C(=O)N[C@H](C(=O)N[C@@H](Cc1c[nH]c2ccccc12)C(=O)O)[C@@H](C)CC` came in with a concentration for half-maximal inhibition (IC50) of 80 nM.

Regarding `CC[C@H](C)[C@H](NC(=O)[C@@H](NC(=O)[C@H](CC(=O)O)NC(=O)[C@H](CC(C)C)NC(=O)[C@@H](NC(C)=O)C(c1ccccc1)c1ccccc1)C(C)C)C(=O)N[C@@H](Cc1c[nH]c2ccccc12)C(=O)O` (Ac-[Dip]LDVIW-OH), the IC50 was found to be 51 nM. The same measure, in the same setting: the result for `CC[C@H](C)[C@H](NC(=O)[C@H](CC(=O)O)NC(=O)[C@H](CC(C)C)NC(=O)[C@@H](Cc1c(C)c(C)c(C)c(C)c1C)NC(C)=O)C(=O)N[C@H](C(=O)N[C@@H](Cc1c[nH]c2ccccc12)C(=O)O)[C@@H](C)CC` (Ac-[X4]LDIIW-OH) reads 2400 nM; that for `CC[C@H](C)[C@@H]1NC(=O)[C@H](CC(=O)O)NC(=O)[C@H](CC(C)C)NC(=O)[C@@H](Cc2ccccc2)NC(=O)[C@H](Cc2c[nH]c3ccccc23)NC(=O)[C@H]([C@@H](C)CC)NC1=O`, above 10000 nM.

Take `CC[C@H](C)[C@H](NC(=O)[C@H](CCCCN)NC(=O)[C@H](CC(=O)O)NC(=O)[C@H](CC(C)C)NC(=O)[C@H](NC(C)=O)C(c1ccccc1)c1ccccc1)C(=O)N[C@@H](Cc1c[nH]c2ccccc12)C(=O)O`: the IC50 stood at 3700 nM.

The compound `CC[C@H](C)[C@H](NC(=O)[C@H](CC(=O)O)NC(=O)[C@H](CC(C)C)NC(=O)[C@H](NC(C)=O)C(c1ccccc1)c1ccccc1)C(=O)N[C@@H](CC(C)C)C(=O)N[C@@H](Cc1c[nH]c2ccccc12)C(=O)O` registered an IC50 of 730 nM.

Take `CC[C@H](C)[C@H](NC(=O)[C@H](CC(=O)O)NC(=O)[C@H](CC(C)C)NC(=O)[C@H](NC(C)=O)C1c2ccccc2CCc2ccccc21)C(=O)N[C@H](C(=O)N[C@@H](Cc1c[nH]c2ccccc12)C(=O)O)[C@@H](C)CC` (Ac-[dGly(5-dibenzosuberyl)]LDIIW-OH): the IC50 amounted to 15 nM.

In a further assay the target is T1, Endothelin receptor type B. Kind of assay: Inhibition of SRTX-6c stimulated arachidonic acid release in CHO cells expressing rat ET- B receptors.
As to `CC[C@H](C)[C@H](NC(=O)[C@H](CC(=O)O)NC(=O)[C@H](CC(C)C)NC(=O)[C@H](N)C(c1ccccc1)c1ccccc1)C(=O)N[C@H](C(=O)N[C@@H](Cc1c[nH]c2ccccc12)C(=O)O)[C@@H](C)CC` (H-[dDip]LDIIW-OH), the midpoint of inhibition, the IC50, lay at 9200 nM. That is a single-digit micromolar value.

The record behind these values is ChEMBL document CHEMBL1128478, “Structure-activity relationships of the potent combined endothelin-A/endothelin-B receptor antagonist Ac-DDip16-Leu-Asp-Ile-Ile-Trp21: development of endothelin-B receptor selective antagonists” (J Med Chem, 1995).
